Key:
Assay in all cases: Growth inhibition assay for breast cancer
Assay type in all cases: cell-based
ZR-75-30 = ZR-75-30 (Luminal, Her2+), 96 hours
Excerpt: (§1) Growth Inhibition Assay for Breast Cancer (BC) (Compound 1). All breast cancer cell lines were maintained and tested in appropriate culture media. The seeding density for each cell line was optimized to ensure assay linearity in 384-well plates.
(§2) Increasing concentrations of Compound 1 were spotted via an acoustic dispenser (EDC ATS-100) into an empty 384-well plate. Compound 1 was spotted in a 10-point serial dilution fashion (3-fold dilution) in duplicate within the plate. The dimethyl sulfoxide (DMSO) concentration was kept constant for a final assay concentration of 0.1% DMSO. Plates were replicated for use against different cell lines and testing periods. After compound plate replication, all plates were sealed (Agilent ThermoLoc) and stored at −20° C. for up to 1 month. When ready for testing, plates were removed from the freezer, thawed, and unsealed just prior to the addition of the test cell.
(§3) Prior to testing, cells were grown and expanded in culture flasks to provide sufficient amounts of starting material. Cells were then diluted to their desired densities and added directly to the Compound 1-spotted 384-well plates. Cells were allowed to grow for 96 hours at 37° C./5% CO2. At the time of setup (t0), initial cell number was assessed via a viability assay (Cell Titer-Glo) and read for luminescence. After 96 hours, cell viability of Compound 1-treated cells was assessed via Cell Titer-Glo and read for luminescence.
(§4) Cell lines were assayed for growth inhibition by Compound 1 for at least two independent tests. All data was normalized and represented as a percentage of the DMSO-treated control cells. […] The potency of Compound 1 in different subtypes of breast cancer cell lines is shown in FIG. 7A, while the correlation of Compound 1 sensitivity to ER, HER, PIK3CA, and TP53 status is shown in FIG. 7B.

CAMA-1 = CAMA-1 (Luminal, ER+), 96 hours
Excerpt: as §1, §2, §3, §4

CAL-85-1 = CAL-85-1 (Basal, TN), 96 hours
Excerpt: as §1, §2, §3, §4

MDA-MB-157 = MDA-MB-157 (Basal, TN), 96 hours
Excerpt: as §1, §2, §3, §4

MDA-MB-231 = MDA-MB-231 (Basal, TN), 96 hours
Excerpt: as §1, §2, §3, §4

HCC38 = HCC38 (Basal, TN), 96 hours
Excerpt: as §1, §2, §3, §4

HCC202 = HCC202 (Luminal, Her2+), 96 hours
Excerpt: as §1, §2, §3, §4

UACC-812 = UACC-812 (Luminal, Her2+), 96 hours
Excerpt: as §1, §2, §3, §4

HCC70 = HCC70 (Basal, TN), 96 hours
Excerpt: as §1, §2, §3, §4

MDA-MB-436 = MDA-MB-436 (Basal, TN), 96 hours
Excerpt: as §1, §2, §3, §4

KPL-1 = KPL-1 (Luminal, ER+), 96 hours
Excerpt: as §1, §2, §3, §4

HCC2157 = HCC2157 (Basal, TN), 96 hours
Excerpt: as §1, §2, §3, §4

DU4475 = DU4475 (Basal, TN), 96 hours
Excerpt: as §1, §2, §3, §4

BT-20 = BT-20 (Basal, TN), 96 hours
Excerpt: as §1, §2, §3, §4

HCC1500 = HCC1500 (Luminal, ER+), 96 hours
Excerpt: as §1, §2, §3, §4

MDA-MB-453 = MDA-MB-453 (Luminal, Her2+), 96 hours
Excerpt: as §1, §2, §3, §4

ZR-75-1 = ZR-75-1 (Luminal, ER+), 96 hours
Excerpt: as §1, §2, §3, §4

BT-483 = BT-483 (Luminal, ER+), 96 hours
Excerpt: as §1, §2, §3, §4

MDA-MB-435 = MDA-MB-435 (Basal, TN), 96 hours
Excerpt: as §1, §2, §3, §4

CAL-120 = CAL-120 (Basal, TN), 96 hours
Excerpt: as §1, §2, §3, §4

HCC1937 = HCC1937 (Basal, TN), 96 hours
Excerpt: as §1, §2, §3, §4

MDA-MB-415 = MDA-MB-415 (Luminal, ER+), 96 hours
Excerpt: as §1, §2, §3, §4

NCI/ADR-RES = NCI/ADR-RES (Basal, TN), 96 hours
Excerpt: as §1, §2, §3, §4

MDA-MB-134-VI = MDA-MB-134-VI (Luminal, ER+), 96 hours
Excerpt: as §1, §2, §3, §4

HCC1428 = HCC1428 (Luminal, ER+), 96 hours
Excerpt: as §1, §2, §3, §4

CAL-51 = CAL-51 (Basal, TN), 96 hours
Excerpt: as §1, §2, §3, §4

HS578T = HS578T (Basal, TN), 96 hours
Excerpt: as §1, §2, §3, §4

HCC1569 = HCC1569 (Basal, Her2+), 96 hours
Excerpt: as §1, §2, §3, §4

BT-549 = BT-549 (Basal, TN), 96 hours
Excerpt: as §1, §2, §3, §4

MDA-MB-468 = MDA-MB-468 (Basal, TN), 96 hours
Excerpt: as §1, §2, §3, §4

EFM-19 = EFM-19 (Luminal, ER+), 96 hours
Excerpt: as §1, §2, §3, §4

SMILES: CO[C@H]1CC[C@H](N2C(=O)CNc3ncc(-c4ccc(C(C)(C)O)nc4)nc32)CC1 [Compound 1, 7-(6-(2-hydroxypropan-2-yl)pyridin-3-yl)-1-((1r,4r)-4-methoxycyclohexyl)-3,4-dihydropyrazino-[2,3-b]pyrazin-2(1H)-one]
- GI50 (ZR-75-30): 63.4 nM
- GI50 (CAMA-1): 146 nM
- GI50 (CAL-85-1): 253 nM
- GI50 (MDA-MB-157): 4.34 µM
- GI50 (MDA-MB-231): 710 nM
- GI50 (HCC38): 2950 nM
- GI50 (HCC202): 20.1 nM
- GI50 (UACC-812): 47.8 nM
- GI50 (HCC70): 172 nM
- GI50 (MDA-MB-436): 2990 nM
- GI50 (KPL-1): 97.3 nM
- GI50 (HCC2157): 399 nM
- GI50 (DU4475): 1240 nM
- GI50 (BT-20): 330 nM
- GI50 (HCC1500): 24.8 nM
- GI50 (MDA-MB-453): 143 nM
- GI50 (ZR-75-1): 32.1 nM
- GI50 (BT-483): 21.7 nM
- GI50 (MDA-MB-435): 222 nM
- GI50 (CAL-120): 700 nM
- GI50 (HCC1937): 697 nM
- GI50 (MDA-MB-415): 169 nM
- GI50 (NCI/ADR-RES): 944 nM
- GI50 (MDA-MB-134-VI): 101 nM
- GI50 (HCC1428): 98.4 nM
- GI50 (CAL-51): 119 nM
- GI50 (HS578T): 343 nM
- GI50 (HCC1569): 356 nM
- GI50 (BT-549): 149 nM
- GI50 (MDA-MB-468): 1860 nM
- GI50 (EFM-19): 57.2 nM

— patent US9493466B2, “Treatment of cancer with TOR kinase inhibitors” (Signal Pharmaceuticals, LLC, priority 2011, dated 2016)
